Tests used:
[1] = target: Serine/threonine-protein kinase PLK3 (Homo sapiens) (UniProt Q9H4B4); test: Inhibition of recombinant human Plk3 (19 to 301 residues) assessed as residual activity at 1 uM using casein as substrate measured after 40 mins in presence of [gamma33P]ATP by scintillation counting method relative to control
[2] = target: Phosphatidylinositol 4-phosphate 5-kinase type-1 gamma (Homo sapiens) (UniProt O60331); test: Inhibition of recombinant full-length human PIP5K1gamma at 1 uM assessed as residual activity at 1 uM using phosphatidylinositol 4-phosphate as substrate measured after 40 mins by HTRF assay
Sequence of Phosphatidylinositol 4-phosphate 5-kinase type-1 gamma (Homo sapiens) (O60331 whole entry, the tested form may be a part): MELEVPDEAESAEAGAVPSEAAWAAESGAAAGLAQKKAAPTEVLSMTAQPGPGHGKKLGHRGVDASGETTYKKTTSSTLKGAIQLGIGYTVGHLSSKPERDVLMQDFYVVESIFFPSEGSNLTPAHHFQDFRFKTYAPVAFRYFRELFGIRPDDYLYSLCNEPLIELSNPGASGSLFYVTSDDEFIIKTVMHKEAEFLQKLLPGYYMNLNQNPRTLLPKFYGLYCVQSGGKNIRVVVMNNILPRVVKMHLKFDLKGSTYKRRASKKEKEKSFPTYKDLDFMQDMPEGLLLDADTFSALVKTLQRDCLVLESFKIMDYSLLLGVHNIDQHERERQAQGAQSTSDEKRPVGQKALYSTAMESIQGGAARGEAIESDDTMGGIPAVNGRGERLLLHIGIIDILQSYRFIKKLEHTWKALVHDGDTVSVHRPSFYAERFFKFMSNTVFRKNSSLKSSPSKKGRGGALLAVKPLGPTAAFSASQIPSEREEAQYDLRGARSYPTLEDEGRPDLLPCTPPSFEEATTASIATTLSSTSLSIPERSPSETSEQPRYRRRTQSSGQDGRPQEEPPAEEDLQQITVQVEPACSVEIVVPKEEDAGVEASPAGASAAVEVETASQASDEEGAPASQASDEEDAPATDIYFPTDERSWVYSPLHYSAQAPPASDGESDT

[3] = tested on: Ribosomal protein S6 kinase beta-1 (Homo sapiens), P23443 [T412E]; test: Inhibition of recombinant human p70S6K T412E mutant (1 to 421 residues) assessed as residual activity at 1 uM using KKRNRTLTV as substrate measured after 40 mins in presence of [gamma33P]ATP by scintillation counting method relative to control
Sequence of Ribosomal protein S6 kinase beta-1 (Homo sapiens), P23443 [T412E] (P23443 whole entry T412E, looked up, the tested form may be a part): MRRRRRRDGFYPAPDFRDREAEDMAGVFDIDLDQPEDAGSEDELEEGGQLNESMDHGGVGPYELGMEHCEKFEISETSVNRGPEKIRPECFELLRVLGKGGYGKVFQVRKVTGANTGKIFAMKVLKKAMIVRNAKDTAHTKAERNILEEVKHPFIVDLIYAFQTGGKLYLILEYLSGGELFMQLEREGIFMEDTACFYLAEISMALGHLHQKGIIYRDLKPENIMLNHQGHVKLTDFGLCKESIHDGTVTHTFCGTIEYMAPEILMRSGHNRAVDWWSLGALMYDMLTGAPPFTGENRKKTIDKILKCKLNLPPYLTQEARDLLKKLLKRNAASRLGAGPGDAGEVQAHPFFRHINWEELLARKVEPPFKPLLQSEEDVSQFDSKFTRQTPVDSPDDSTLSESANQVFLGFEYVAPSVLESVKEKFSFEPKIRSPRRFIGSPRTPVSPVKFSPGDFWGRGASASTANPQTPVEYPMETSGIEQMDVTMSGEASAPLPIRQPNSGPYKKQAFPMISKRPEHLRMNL

[4] = target: Activin receptor type-1B (Homo sapiens) (UniProt P36896); test: Inhibition of human ALK4 (150 to end residues) assessed as residual activity at 1 uM using casein as substrate incubated for 40 mins in presence of [gamma-33ATP] by scintillation counting based radiometry assay relative to control
Sequence of Activin receptor type-1B (Homo sapiens) (P36896 whole entry): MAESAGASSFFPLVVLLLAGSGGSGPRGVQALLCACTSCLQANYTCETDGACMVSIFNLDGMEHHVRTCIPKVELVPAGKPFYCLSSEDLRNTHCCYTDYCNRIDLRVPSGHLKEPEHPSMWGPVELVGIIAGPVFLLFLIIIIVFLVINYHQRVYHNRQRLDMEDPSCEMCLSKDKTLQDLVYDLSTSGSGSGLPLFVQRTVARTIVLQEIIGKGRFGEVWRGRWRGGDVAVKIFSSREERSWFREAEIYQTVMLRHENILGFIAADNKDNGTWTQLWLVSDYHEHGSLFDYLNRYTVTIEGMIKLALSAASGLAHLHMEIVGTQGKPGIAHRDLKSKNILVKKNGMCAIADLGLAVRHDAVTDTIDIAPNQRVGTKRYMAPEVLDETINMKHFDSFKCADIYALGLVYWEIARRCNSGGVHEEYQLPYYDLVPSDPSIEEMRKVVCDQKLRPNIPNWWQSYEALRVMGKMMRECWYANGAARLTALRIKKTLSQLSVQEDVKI

[5] = target: Serine/threonine-protein kinase mTOR (Homo sapiens) (UniProt P42345); test: Inhibition of recombinant full-length human mTOR assessed as residual activity at 1 uM measured after 40 mins in presence of [gamma33P]ATP by scintillation counting method relative to control
[6] = target: Dual specificity tyrosine-phosphorylation-regulated kinase 1B (Homo sapiens) (UniProt Q9Y463); test: Inhibition of recombinant human DYRK1B assessed as residual activity at 1 uM using RRRFRPASPLRGPPK as substrate at 40 mins in presence of [gamma-33ATP] by scintillation counting based radiometry assay relative to control
[7] = target: T1, cGMP-dependent protein kinase 1 (Homo sapiens) (UniProt Q13976); test: Inhibition of recombinant full-length human PKG1alpha assessed as residual activity at 1 uM using RRRLSFAEPG as substrate measured after 40 mins in presence of [gamma33P]ATP by scintillation counting method relative to control
T1 sequence (whole entry): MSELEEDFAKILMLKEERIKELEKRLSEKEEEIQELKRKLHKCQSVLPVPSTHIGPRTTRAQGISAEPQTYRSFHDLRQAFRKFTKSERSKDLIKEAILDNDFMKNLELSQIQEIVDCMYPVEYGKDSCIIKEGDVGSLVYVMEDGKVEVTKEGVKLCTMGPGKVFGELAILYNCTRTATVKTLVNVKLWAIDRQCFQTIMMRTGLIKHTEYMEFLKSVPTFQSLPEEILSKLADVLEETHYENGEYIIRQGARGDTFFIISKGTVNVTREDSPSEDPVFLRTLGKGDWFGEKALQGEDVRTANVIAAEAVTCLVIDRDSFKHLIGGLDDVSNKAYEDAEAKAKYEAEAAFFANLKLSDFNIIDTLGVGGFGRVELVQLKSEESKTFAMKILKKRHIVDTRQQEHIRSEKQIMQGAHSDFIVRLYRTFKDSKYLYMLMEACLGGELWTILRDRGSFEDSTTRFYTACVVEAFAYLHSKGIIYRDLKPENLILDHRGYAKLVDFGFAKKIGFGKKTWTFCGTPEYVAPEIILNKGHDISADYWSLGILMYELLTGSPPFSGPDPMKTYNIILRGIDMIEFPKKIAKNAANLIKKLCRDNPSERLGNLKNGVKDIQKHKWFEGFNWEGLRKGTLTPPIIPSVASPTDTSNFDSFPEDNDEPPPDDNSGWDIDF

[8] = target: Tyrosine-protein kinase ITK/TSK (Homo sapiens) (UniProt Q08881); test: Inhibition of human Itk (352 to 617 residues) assessed as residual activity at 1 uM using myelin basic protein as substrate after 40 mins by [gamma-33ATP] radiometric assay relative to control
[9] = target: Serine/threonine-protein kinase 17B (Homo sapiens) (UniProt O94768); test: Inhibition of recombinant human DRAK2 assessed as residual activity at 1 uM using KKRPQRRYSNVF as substrate at 120 mins in presence of [gamma-33ATP] by scintillation counting based radiometry assay relative to control
Sequence of Serine/threonine-protein kinase 17B (Homo sapiens) (O94768 whole entry): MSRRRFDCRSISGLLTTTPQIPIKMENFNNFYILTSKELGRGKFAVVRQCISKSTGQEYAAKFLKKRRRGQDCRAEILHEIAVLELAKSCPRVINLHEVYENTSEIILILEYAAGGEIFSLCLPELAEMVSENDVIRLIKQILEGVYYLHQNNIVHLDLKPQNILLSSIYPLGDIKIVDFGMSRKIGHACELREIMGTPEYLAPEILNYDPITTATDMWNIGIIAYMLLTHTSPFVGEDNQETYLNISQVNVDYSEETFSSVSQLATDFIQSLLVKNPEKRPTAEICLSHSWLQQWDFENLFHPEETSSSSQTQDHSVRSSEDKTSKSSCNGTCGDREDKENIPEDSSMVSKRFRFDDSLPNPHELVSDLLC

[10] = tested on: Tyrosine-protein kinase ABL1 (Homo sapiens), P00519 [Y253F]; test: Inhibition of human ABL1 Y253F mutant (27 to end residues) assessed as residual activity at 1 uM using EAIYAAPFAKKK as substrate incubated for 40 mins in presence of [gamma-33ATP] by scintillation counting based radiometry assay relative to control
[11] = target: Cyclin-dependent kinase-like 1 (Homo sapiens) (UniProt Q00532); test: Inhibition of recombinant human CDKL1 (1 to 303 residues) assessed as residual activity at 1 uM using RRRFRPASPLRGP as substrate measured after 120 mins in presence of [gamma33P]ATP by scintillation counting method
[12] = target: Activin receptor type-1 (Homo sapiens) (UniProt Q04771); test: Inhibition of human ALK2 (147 to end residues) assessed as residual activity at 1 uM using casein as substrate incubated for 40 mins in presence of [gamma-33ATP] by scintillation counting based radiometry assay relative to control
Sequence of Activin receptor type-1 (Homo sapiens) (Q04771 whole entry): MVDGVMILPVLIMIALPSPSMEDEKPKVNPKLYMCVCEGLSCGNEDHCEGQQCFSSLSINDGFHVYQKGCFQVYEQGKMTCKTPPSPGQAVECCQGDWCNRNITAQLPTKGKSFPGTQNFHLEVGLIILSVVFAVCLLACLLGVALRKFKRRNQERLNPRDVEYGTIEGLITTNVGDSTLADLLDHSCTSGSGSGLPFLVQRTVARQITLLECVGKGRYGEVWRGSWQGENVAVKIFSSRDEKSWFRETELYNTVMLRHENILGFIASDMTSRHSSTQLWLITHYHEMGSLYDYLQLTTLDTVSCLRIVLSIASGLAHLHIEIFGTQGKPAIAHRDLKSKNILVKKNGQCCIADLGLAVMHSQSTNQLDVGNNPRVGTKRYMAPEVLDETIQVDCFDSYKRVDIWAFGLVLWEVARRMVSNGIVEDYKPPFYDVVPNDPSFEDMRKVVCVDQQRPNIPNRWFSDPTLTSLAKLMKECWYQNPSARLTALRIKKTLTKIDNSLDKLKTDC

[13] = tested on: Angiopoietin-1 receptor (Homo sapiens), Q02763 [Q939H,Q940H,R849W]; test: Inhibition of human Tie2 Q939H/Q940H/R849W mutant (771 to end residues) assessed as residual activity at 1 uM using EFPIYDFLPAKKK as substrate measured after 40 mins in presence of [gamma33P]ATP by scintillation counting method relative to control
Sequence of Angiopoietin-1 receptor (Homo sapiens), Q02763 [Q939H,Q940H,R849W] (Q02763 whole entry R849W/Q939H/Q940H, the tested form may be a part): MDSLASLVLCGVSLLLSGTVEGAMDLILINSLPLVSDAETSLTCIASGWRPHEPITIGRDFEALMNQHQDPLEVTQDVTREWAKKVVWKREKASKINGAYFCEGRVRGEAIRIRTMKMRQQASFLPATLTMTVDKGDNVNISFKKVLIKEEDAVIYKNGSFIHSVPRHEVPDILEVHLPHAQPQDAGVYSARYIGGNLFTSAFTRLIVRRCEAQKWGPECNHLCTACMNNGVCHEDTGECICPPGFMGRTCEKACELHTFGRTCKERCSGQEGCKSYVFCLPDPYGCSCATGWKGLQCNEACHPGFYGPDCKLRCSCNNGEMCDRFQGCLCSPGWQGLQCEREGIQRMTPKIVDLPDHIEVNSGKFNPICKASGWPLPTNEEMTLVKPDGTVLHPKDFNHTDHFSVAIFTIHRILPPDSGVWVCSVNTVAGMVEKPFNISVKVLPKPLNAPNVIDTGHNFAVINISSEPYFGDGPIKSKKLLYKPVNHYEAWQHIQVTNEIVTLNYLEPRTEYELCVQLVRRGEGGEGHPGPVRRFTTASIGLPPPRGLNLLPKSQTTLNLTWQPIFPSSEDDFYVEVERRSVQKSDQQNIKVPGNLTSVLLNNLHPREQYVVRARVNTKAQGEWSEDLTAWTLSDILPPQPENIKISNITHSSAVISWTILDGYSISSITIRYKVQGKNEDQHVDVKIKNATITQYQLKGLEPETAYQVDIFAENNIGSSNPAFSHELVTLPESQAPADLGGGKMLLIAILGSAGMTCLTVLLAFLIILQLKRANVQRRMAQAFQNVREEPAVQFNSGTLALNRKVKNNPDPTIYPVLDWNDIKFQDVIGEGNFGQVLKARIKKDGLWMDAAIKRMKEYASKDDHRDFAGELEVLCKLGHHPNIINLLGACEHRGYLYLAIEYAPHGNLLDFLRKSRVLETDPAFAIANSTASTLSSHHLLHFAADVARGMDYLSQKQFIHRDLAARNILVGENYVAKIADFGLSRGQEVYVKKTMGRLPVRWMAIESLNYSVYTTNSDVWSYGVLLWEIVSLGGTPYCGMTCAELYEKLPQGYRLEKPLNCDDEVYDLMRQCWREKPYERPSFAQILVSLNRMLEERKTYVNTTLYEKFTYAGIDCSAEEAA

Homo sapiens = species on record: Homo sapiens; test: Inhibition of recombinant human Plk4 S34T mutant (1 to 273 residues) assessed as residual activity at 1 uM using casein as substrate measured after 40 mins in presence of [gamma33P]ATP by scintillation counting method relative to control
[14] = target: CDK2/Cyclin A1 (Homo sapiens) (UniProt P24941+P78396); test: Inhibition of recombinant full length human CDK2/CyclinA assessed as residual activity at 1 uM using Histone H1 as substrate incubated for 40 mins in presence of [gamma-33ATP] by scintillation counting based radiometry assay relative to control; format: protein-complex assay
[15] = target: Cyclin-dependent kinase 2/cyclin E1 (Homo sapiens) (UniProt P24864+P24941); test: Inhibition of recombinant full length human CDK2/CyclinE assessed as residual activity at 1 uM using Histone H1 as substrate incubated for 40 mins in presence of [gamma-33ATP] by scintillation counting based radiometry assay relative to control; format: protein-complex assay
[16] = target: Tyrosine-protein kinase ABL2 (Homo sapiens) (UniProt P42684); test: Inhibition of human Arg (38 to end residues) assessed as residual activity at 1 uM using EAIYAAPFAKKK as substrate incubated for 40 mins in presence of [gamma-33ATP] by scintillation counting based radiometry assay relative to control
Sequence of Tyrosine-protein kinase ABL2 (Homo sapiens) (P42684 whole entry): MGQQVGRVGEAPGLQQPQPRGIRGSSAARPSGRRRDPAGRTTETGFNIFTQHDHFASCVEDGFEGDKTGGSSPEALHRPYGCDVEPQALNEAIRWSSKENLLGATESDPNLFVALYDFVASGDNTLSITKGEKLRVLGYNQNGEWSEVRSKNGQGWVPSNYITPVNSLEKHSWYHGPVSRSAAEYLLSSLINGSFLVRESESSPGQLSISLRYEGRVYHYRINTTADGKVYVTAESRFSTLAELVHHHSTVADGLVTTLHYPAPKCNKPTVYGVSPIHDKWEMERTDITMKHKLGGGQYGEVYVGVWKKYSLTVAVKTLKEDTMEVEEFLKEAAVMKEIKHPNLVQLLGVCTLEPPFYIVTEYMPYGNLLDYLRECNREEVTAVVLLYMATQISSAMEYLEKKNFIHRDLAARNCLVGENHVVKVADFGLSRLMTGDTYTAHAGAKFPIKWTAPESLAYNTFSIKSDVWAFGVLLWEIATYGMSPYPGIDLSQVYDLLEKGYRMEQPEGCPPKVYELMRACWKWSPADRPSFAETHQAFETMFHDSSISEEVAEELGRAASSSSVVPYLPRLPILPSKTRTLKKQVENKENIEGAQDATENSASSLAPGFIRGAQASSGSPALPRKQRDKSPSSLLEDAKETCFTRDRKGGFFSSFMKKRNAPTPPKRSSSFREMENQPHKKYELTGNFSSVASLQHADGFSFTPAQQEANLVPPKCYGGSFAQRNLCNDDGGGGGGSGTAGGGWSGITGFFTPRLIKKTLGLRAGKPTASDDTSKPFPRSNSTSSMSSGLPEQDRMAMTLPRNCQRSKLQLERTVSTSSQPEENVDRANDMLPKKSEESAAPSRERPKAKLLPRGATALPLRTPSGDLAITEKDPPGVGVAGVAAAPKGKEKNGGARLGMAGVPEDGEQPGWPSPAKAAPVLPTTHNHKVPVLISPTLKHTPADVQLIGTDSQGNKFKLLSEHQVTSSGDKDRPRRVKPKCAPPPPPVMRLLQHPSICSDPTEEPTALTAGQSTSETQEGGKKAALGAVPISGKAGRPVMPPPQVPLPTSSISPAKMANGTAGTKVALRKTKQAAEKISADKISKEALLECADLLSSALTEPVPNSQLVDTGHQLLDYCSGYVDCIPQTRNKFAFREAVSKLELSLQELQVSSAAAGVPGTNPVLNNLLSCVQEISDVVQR

Compound | Activity [1] [%] | Activity [2] [%] | Activity [3] [%] | Activity [4] [%] | Activity [5] [%] | Activity [6] [%] | Activity [7] [%] | Activity [8] [%] | Activity [9] [%] | Activity [10] [%] | Activity [11] [%] | Activity [12] [%] | Activity [13] [%] | Activity (Homo sapiens) [%] | Activity [14] [%] | Activity [15] [%] | Activity [16] [%]
N=C1NC(=O)/C(=C\c2ccc(-c3cccc([N+](=O)[O-])c3)o2)S1 | 108 | 101 | 99 | 109 | 95 | 80 | 71 | 98 | 59 | 94 | 85 | 101 | 91 | 83 | 61 | 62 | 87
C=CCOC(=O)c1cc(-c2ccc(/C=C3/NC(=S)NC3=O)o2)ccc1Cl | 98 | 100 | 108 | 105 | 88 | 88 | 93 | 107 | 80 | 88 | 78 | 105 | 105 | 91 | 54 | 58 | 107
